ChEMBL document CHEMBL1201862, “PubChem BioAssay data set” (2004)
Structures can show the parent of a compound that is named as a salt.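 Briefly, cells in 96-well plates were exposed to five compound concentrations for 48 h, and endpoints were estimated by linear interpolation. Abbreviation: GI50, concentration required for 50% inhibition of growth.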 The source made the active and inactive calls. No stated cut-off is given here; in the data, active = GI50 up to about 1.1 µM and inactive = higher.

Assays:
Assay in all cases: NCI tumour cell line growth inhibition, 48 h
786-0 = tested on: 786-0
A498 = tested on: A498
A549 = tested on: A549
ACHN = tested on: ACHN
CAKI-1 = tested on: CAKI-1
CCRF-CEM = tested on: CCRF-CEM
COLO 205 = tested on: COLO 205
DU-145 = tested on: DU-145
EKVX = tested on: EKVX
HCC 2998 = tested on: HCC 2998
HCT-116 = tested on: HCT-116
HCT-15 = tested on: HCT-15
HL-60 = tested on: HL-60
HOP-62 = tested on: HOP-62
HOP-92 = tested on: HOP-92
HT-29 = tested on: HT-29
Hs-578T = tested on: Hs-578T
IGROV-1 = tested on: IGROV-1
K562 = tested on: K562
KM12 = tested on: KM12
M14 = tested on: M14
MCF7 = tested on: MCF7
MDA-N = tested on: MDA-N
MOLT-4 = tested on: MOLT-4
Malme-3M = tested on: Malme-3M
NCI-H23 = tested on: NCI-H23
NCI-H460 = tested on: NCI-H460
NCI/ADR-RES = tested on: NCI/ADR-RES
OVCAR-4 = tested on: OVCAR-4
OVCAR-5 = tested on: OVCAR-5
OVCAR-8 = tested on: OVCAR-8
RPMI-8226 = tested on: RPMI-8226
RXF 393 = tested on: RXF 393
SF-268 = tested on: SF-268
SF-295 = tested on: SF-295
SK-MEL-28 = tested on: SK-MEL-28
SK-MEL-5 = tested on: SK-MEL-5
SK-OV-3 = tested on: SK-OV-3
SNB-19 = tested on: SNB-19
SNB-75 = tested on: SNB-75
SR = tested on: SR
SW-620 = tested on: SW-620
T47D = tested on: T47D
TK-10 = tested on: TK-10
U-251 = tested on: U-251
UACC-257 = tested on: UACC-257
UO-31 = tested on: UO-31
BT-549 = tested on: BT-549
LOX IMVI = tested on: LOX IMVI
MDA-MB-231 = tested on: MDA-MB-231
MDA-MB-435 = tested on: MDA-MB-435
NCI-H226 = tested on: NCI-H226
NCI-H522 = tested on: NCI-H522
OVCAR-3 = tested on: OVCAR-3
PC-3 = tested on: PC-3
SF-539 = tested on: SF-539
SK-MEL-2 = tested on: SK-MEL-2
UACC-62 = tested on: UACC-62

Cc1c(NC(=O)CCCl)c(=O)oc2c(C)c3occc(=O)c3cc12
GI50 (786-0): > 100 µM (inactive)
GI50 (A498): 19.7 µM (inactive)
GI50 (A549): > 100 µM (inactive)
GI50 (ACHN): 45.5 µM (inactive)
GI50 (CAKI-1): 42.1 µM (inactive)
GI50 (CCRF-CEM): 30.9 µM (inactive)
GI50 (COLO 205): > 100 µM (inactive)
GI50 (DU-145): > 100 µM (inactive)
GI50 (EKVX): > 100 µM (inactive)
GI50 (HCC 2998): > 100 µM (inactive)
GI50 (HCT-116): 92.7 µM (inactive)
GI50 (HCT-15): 62.4 µM
GI50 (HL-60): 57.7 µM (inactive)
GI50 (HOP-62): > 100 µM (inactive)
GI50 (HOP-92): 28.9 µM (inactive)
GI50 (HT-29): > 100 µM (inactive)
GI50 (Hs-578T): 35.5 µM (inactive)
GI50 (IGROV-1): 97.5 µM (inactive)
GI50 (K562): 66.4 µM (inactive)
GI50 (KM12): > 100 µM (inactive)
GI50 (M14): 50.8 µM (inactive)
GI50 (MCF7): 67.5 µM (inactive)
GI50 (MDA-N): 47.9 µM (inactive)
GI50 (MOLT-4): 76.9 µM (inactive)
GI50 (Malme-3M): 23.5 µM (inactive)
GI50 (NCI-H23): 94.4 µM (inactive)
GI50 (NCI-H460): 51.2 µM (inactive)
GI50 (NCI/ADR-RES): > 100 µM (inactive)
GI50 (OVCAR-4): > 100 µM (inactive)
GI50 (OVCAR-5): > 100 µM (inactive)
GI50 (OVCAR-8): > 100 µM (inactive)
GI50 (RPMI-8226): 81.7 µM (inactive)
GI50 (RXF 393): 33.5 µM (inactive)
GI50 (SF-268): > 100 µM (inactive)
GI50 (SF-295): 33 µM (inactive)
GI50 (SK-MEL-28): 53 µM (inactive)
GI50 (SK-MEL-5): 36.8 µM (inactive)
GI50 (SK-OV-3): 86.9 µM (inactive)
GI50 (SNB-19): 75.5 µM (inactive)
GI50 (SNB-75): 42.2 µM (inactive)
GI50 (SR): 80.4 µM (inactive)
GI50 (SW-620): 87.7 µM (inactive)
GI50 (T47D): 77.4 µM (inactive)
GI50 (TK-10): 49.2 µM (inactive)
GI50 (U-251): 67.6 µM (inactive)
GI50 (UACC-257): 60.1 µM (inactive)
GI50 (UO-31): 36.1 µM (inactive)

NCCCCNCCCN [SPERMIDINE TRIHYDROCHLORIDE]
GI50 (786-0): > 100 µM (inactive)
GI50 (A498): > 100 µM (inactive)
GI50 (A549): > 100 µM (inactive)
GI50 (ACHN): > 100 µM (inactive)
GI50 (BT-549): > 100 µM (inactive)
GI50 (CAKI-1): 1.71 µM (inactive)
GI50 (COLO 205): > 100 µM (inactive)
GI50 (DU-145): > 100 µM (inactive)
GI50 (EKVX): > 100 µM (inactive)
GI50 (HCC 2998): > 100 µM (inactive)
GI50 (HCT-116): > 100 µM (inactive)
GI50 (HCT-15): > 100 µM
GI50 (HL-60): > 100 µM (inactive)
GI50 (HOP-62): > 100 µM (inactive)
GI50 (HOP-92): > 100 µM (inactive)
GI50 (HT-29): > 100 µM (inactive)
GI50 (IGROV-1): > 100 µM (inactive)
GI50 (K562): 67.8 µM (inactive)
GI50 (KM12): > 100 µM (inactive)
GI50 (LOX IMVI): > 100 µM (inactive)
GI50 (M14): > 100 µM (inactive)
GI50 (MCF7): 72.8 µM (inactive)
GI50 (MDA-MB-231): > 100 µM (inactive)
GI50 (MDA-MB-435): 27.4 µM (inactive)
GI50 (MOLT-4): 51.3 µM (inactive)
GI50 (Malme-3M): > 100 µM (inactive)
GI50 (NCI-H226): > 100 µM (inactive)
GI50 (NCI-H23): > 100 µM (inactive)
GI50 (NCI-H460): > 100 µM (inactive)
GI50 (NCI-H522): 97.1 µM (inactive)
GI50 (NCI/ADR-RES): > 100 µM (inactive)
GI50 (OVCAR-3): > 100 µM (inactive)
GI50 (OVCAR-4): 16.7 µM (inactive)
GI50 (OVCAR-5): > 100 µM (inactive)
GI50 (OVCAR-8): > 100 µM (inactive)
GI50 (PC-3): > 100 µM (inactive)
GI50 (RXF 393): > 100 µM (inactive)
GI50 (SF-268): > 100 µM (inactive)
GI50 (SF-295): > 100 µM (inactive)
GI50 (SF-539): > 100 µM (inactive)
GI50 (SK-MEL-28): > 100 µM (inactive)
GI50 (SK-MEL-2): > 100 µM (inactive)
GI50 (SK-MEL-5): > 100 µM (inactive)
GI50 (SK-OV-3): > 100 µM (inactive)
GI50 (SNB-19): > 100 µM (inactive)
GI50 (SNB-75): > 100 µM (inactive)
GI50 (SR): > 100 µM (inactive)
GI50 (SW-620): > 100 µM (inactive)
GI50 (T47D): > 100 µM (inactive)
GI50 (TK-10): > 100 µM (inactive)
GI50 (U-251): > 100 µM (inactive)
GI50 (UACC-257): > 100 µM (inactive)
GI50 (UACC-62): > 100 µM (inactive)
GI50 (UO-31): > 100 µM (inactive)
